Measured values from article PMC6752817, “Identification and characterization of a novel heparan sulfate-binding domain in Activin A longest variants and implications for function” (PLoS ONE, 2019).
Entries after “also recorded” stand apart in the source; their conditions may differ.

Experiments:
[1] = rat, in vivo, iv; cited from earlier work
Text: As pointed out above, past and recent studies on Act A biology and function have made use of the X3 variant or the mature protein but to our knowledge, the X1 or X2 variants have not been tested. For example, Harrington et al. used recombinant Act A mature protein to clarify the structural basis by which Fs inhibits Act A signaling. […] Wang et al. carried out a detailed analysis of mechanisms involved in initiation of Act A biological activity, using the X3 ...

[2] = tested on: Act A X1 and X2 variant transcripts in U937 cells; assay: Induction of Act A variant transcripts in U937 cells, PCR; format: cell-based, human
Experimental: (§1) Total RNA was isolated using TRIzol Reagent (Thermo-Fisher) following the manufacturers protocol. Five μg of glycogen (Thermo-Fisher AM9510) was added to the aqueous phase prior to the addition of isopropanol to facilitate RNA precipitation. For some experiments, RNA quantification was determined using a Nanodrop spectrophotometer. cDNA was prepared from 2 μg of purified RNA, using oligo dT as primer, supplied with the Verso cDNA synthesis kit (Thermo-Fisher # AB1453A) or SuperScript IV Reverse Transcriptase (Thermo-Fisher #18090010) following the manufactures protocol. All PCR reactions were performed using Act A specific primers and GoTaq Green Master Mix (Promega) following the manufacturers protocols. PCR reactions were optimized by gradient PCR, using an Applied Biosystems Veriti Thermal Cycler. PCR products were size fractionated on 1% agarose gels, the bands were isolated, DNA was extracted from gel slices using Micro Bio-Spin columns (Bio Rad# 7326204) and sequenced. All DNA sequencing was performed by the NAPCore Facility at CHOP.
(§2) U937 (human pro-monocytic) and THP-1 (human monocytic) cell lines were grown in RPMI containing 10% fetal bovine serum in a humidified atmosphere of 5% CO2. Cells were treated with PMA (100 ng/ml; 160 nM) for 4 hr (23) or GM-CSF (1 ng/ml) for 8 hr in RPMI containing 1% fetal bovine serum.

[3] = Solid-phase binding of biotinylated peptides (NA-HRP tetramers) to HS-coated plates; conditions: for Binding to substrate-bound HS: HS-coated 96-well plates, peptide tetramers with NA-HRP, PBST with 1% BSA, 2 hr, room temperature, OPD read at 450 nm; for Binding to HS in presence of heparin competitor: HS-coated plates, pre-incubation of peptide with excess soluble heparin
Experimental: Fig 6 Peptides corresponding to the novel HBD bind HS with high affinity. 96-well plates were coated with HS and incubated with tetrameric peptide complexes (HBC) for 2 hrs. Plates were washed, and bound peptides were assessed by addition of OPD substrate. A and B, schematic diagram depict the amino acid sequences of Act A- X2^13-37 and Act A- X3^259-272 peptides and their location within the full-length proteins, respectively. C, solid phase binding assays of Act A peptides to HS. […] Inset, double reciprocal plot that yields a Kd of 4 nM (n = 3) for Act A- X2^13-37.
Peptides encompassing the heparin binding domains, contained the putative Cardin-Weintraub (CW) motif and a minimum of 2 flanking amino acids on the N- and C- terminal sides of the domain. Three Glycine residues were added to the N-terminus of each peptide to provide a flexible linker between an N-terminal biotin tag and the peptide itself (See Table 6). Peptides were purified by reverse phase HPLC and peptide mass was confirmed by MALDI-TOF mass spectrometry. All peptides were synthesized and purified by Peptide 2 (Chantilly, VA). Where indicated, biotinylated peptides were oligomerized into tetramers by incubation with NAHRP (each avidin molecule binding 4 biotins ([57]) as described.
Nunc MaxiSorp flat bottom 96 well plates were coated with HS in 50 mM carbonate buffer (pH 9.4) overnight at 4°C as described. All binding assays were carried out in 1 x PBS, 0.1% tween 20 (PBST) containing 1% bovine serum albumin. Plates were incubated with peptides for a minimum of 2 hr at room temperature with gentle shaking. At the termination of the assay, the plates were washed 3 times with PBST and a final rinse with PBS. Plates were developed by addition of HRP substrate O-phenylenediamine dihydrochloride (OPD) in Citrate-Phosphate buffer (25 mM citric acid, 50 mM sodium phosphate, pH 5) and read at 450 nm in a Bio-Tek Synergy HT plate reader.

[4] = tested on: U937 cell surface; assay: Peptide binding to intact U937 cells, FACS; format: cell-based, human; conditions: formalin-fixed U937 cells; for Binding to U937 cell surface: biotinylated peptide complexed with NA-488, 2 hr on ice, FACS (FL1); for Binding to U937 cell surface in presence of heparin competitor: peptide complexed with NA-488, excess soluble heparin, FACS
Experimental: Fig 7 HBD peptides bind to the cell surface with avidity. A, U937 cells were incubated with peptide complexes consisting of biotinylated peptides pre-incubated with NA-488. Following incubation, the cells were washed, and bound peptide was assessed by FACS analysis. […] In contrast, Act A-X3^259-272 peptide fails to bind. Binding specificity was verified using a previously characterized peptide encompassing the high affinity HBD from BMP4. B, representative FACS plots show binding of Act A- X2^13-37 in the absence (blue line) or presence (red line) of heparin competitor. C, representative FACS plots showing binding of Act A- X2^13-37 (blue line), lack of binding by Act A-X3^259-272 (red line) and background signal generated by U937 cells alone (green line). Statistical Analysis (Student’s t test): NA488 vs ActA X2^13-37, NA488 vs BMP4: ****: P< = 0.0001, **: P< = 0.01.
U937 cells were washed with PBS and fixed with 2% buffered formalin for 20 min on ice. The cells were washed with PBS and blocked by incubation in PBS, 1% BSA for 20 min on ice. Approximately […] cells (100 μl) were incubated with peptide tetramers consisting of biotinylated peptide complexed with NA-488. Following incubation for 2 hr on ice, the cells were washed and analyzed on a BD Accuri Flow Cytometer (FL1 channel), located in the Flow Cytometry Core Laboratory at CHOP.

[5] = tested on: Act A X1 and X2 variant transcripts in THP1 cells; assay: Induction of Act A variant transcripts in THP1 cells, PCR; format: cell-based, human; conditions: GM-CSF 1 ng/ml for 8 hr
Experimental: as §1, §2

[6] = tested on: Act A expression in purified human monocytes; conditions: ref [41]; cited from earlier work
Experimental: It should be noted that the above transcript/protein predictions of variants are based on computational genomic analyses that were conducted initially by the MGC team using ESTs to explore the transcriptome and then subsequently confirmed by whole genome sequencing and bioinformatics. Much of the past and recent extensive literature on Act A has utilized recombinant forms of the X3 variant, but currently there is little information about the expression and structural characteristics of the X1 and X2 variants. Thus, we first asked whether these variants are expressed by myel ...

[7] = tested on: TIEG expression in THP1 cells; assay: TIEG (KLF10) mRNA induction in THP1 cells, qPCR; format: cell-based, human; conditions: 2 hr, rhAct A or conditioned medium of AD293 cells transfected with X2 or X3 constructs
Text: Fig 4 Expression and secretion of Act A variants. Expression constructs for full length X1, X2 and X3 variants were cloned into pcDNA 3.1 and transfected into AD293 and COS1 cells. A, diagram of Act A expression cassette with His tag on the 3’ end. […] Untransfected cells are shown in lane 2. […] D, immunoblots of conditioned medium samples separated under reducing conditions and probed with anti-His tag antibody. […] The band was undetectable in conditioned medium from cells transfected with the X1 vector (lanes 1, 4 and 9) or un-transfected cells (lanes 7 and 8). Lanes 4–6 are a longer exposure of lanes 1–3. E, THP1 cells were incubated for 2 hrs with conditioned media from AD293 cells that were untransfected (U) or transfected with X2 or X3 constructs. The cells were processed for q-PCR analysis of TIEG expression, an early response gene induced by Act A and TGF-β. […]
To assess biological activity of the expressed Act A variants, THP1 cells were incubated with 3 ml of conditioned medium obtained from cells transfected with each Act A variant for 2 hr, in the absence or presences of an ActA neutralizing antibody (BioLegend # 94746) the cells were pelleted and total RNA was isolated using TRIzol Reagent as described above. Induction of Kruppel-like factor 10 (KLF10, TIEG; accession NM_005655) mRNA, an early response gene induced by Act A and TGF-β was assessed by qPCR.

[8] = tested on: mutant ALK2; conditions: ref [52]; cited from earlier work
Text: In the musculoskeletal research field, interest in Act A biology has been re-invigorated by recent evidence of its pathogenic roles in the pediatric congenital disorder Fibrodysplasia Ossificans Progressiva (FOP). FOP is characterized by episodic formation of extraskeletal cartilage and bone tissue–a process collectively termed heterotopic ossification (HO)—at multiple sites, eventually involving much of the body. HO is preceded by local inflammation and over time, the accumulated ectopic tissue causes multiple health problems and impediments—including skeletal deformities, chron ...

[9] = PMA 100 ng/ml (160 nM) for 4 hr, semi-quantitative PCR

mature protein: mature Act A protein (cited studies)
Circulating half-life (t1/2 fast) [1]: 5.5 min

CCCCCCCCCCCCCC(=O)O[C@@H]1[C@@H](C)[C@@]2(O)[C@@H](C=C(CO)C[C@]3(O)C(=O)C(C)=C[C@@H]23)[C@@H]2C(C)(C)[C@]12OC(C)=O [PMA, Phorbol 12-myristate 13-acetate, reference compound]
Expression of Act A X1 variant transcript in U937 cells [2, 9]: undetectable | Expression of Act A X2 variant transcript in U937 cells [2, 9]: stimulated expression of transcripts encoding the X2 variant in U937 cells; also recorded: induced expression of Act A-X2

[B]-GGGGKKKKKEEEGEGKKK [X3^259-272]
Binding to substrate-bound HS [3]: failed to interact with HS at any concentration tested; also recorded: failed to interact with substrate-bound HS | Binding to substrate-bound HS ([3]; listed as Act A-X3^259-272): displays minimal binding | Binding to U937 cell surface [4]: failed to interact with the cells; also recorded: failed to interact with substrate-bound HS or the cell surface | Binding to U937 cell surface ([4]; listed as Act A-X3^259-272): fails to bind

[B]-GGGLKRRRKKKTPKKKIKKSTHTKKPAR [X2^13-37, biotinylated synthetic peptide encompassing the novel HBD, identical in X1 and X2]
Binding to substrate-bound HS [3]: interacted with HS with high affinity | Binding to substrate-bound HS ([3]; listed as Act A- X2^13-37): binds HS with high affinity | Binding to HS in presence of heparin competitor [3]: binding was blocked by pre-incubation of the peptide with excess heparin | Binding to HS in presence of heparin competitor ([3]; listed as Act A- X2^13-37): its binding is blocked by addition of soluble heparin | Binding to U937 cell surface [4]: readily and efficiently interacted with the cell surface | Binding to U937 cell surface ([4]; listed as Act A- X2^13-37): readily binds to the cell surface | Binding to U937 cell surface in presence of heparin competitor [4]: binding was blocked by pre-treatment with heparin | Binding to U937 cell surface in presence of heparin competitor ([4]; listed as Act A- X2^13-37): its interaction is blocked by soluble heparin competitor

granulocyte macrophage-colony stimulating factor [GM-CSF]
Expression of Act A X1 variant transcript in U937 cells ([2]; GM-CSF 1 ng/ml for 8 hr, PCR): only stimulated expression of the X1 variant in U937 cells; also recorded: induced expression of both Act A-X2 and -X1 | Expression of Act A X2 variant transcript in U937 cells ([2]; GM-CSF 1 ng/ml for 8 hr, PCR): upregulated the X2 variant in both cell lines; also recorded: induced expression of both Act A-X2 and -X1 | Expression of Act A X2 variant transcript in THP1 cells [5]: upregulated the X2 variant in both cell lines; also recorded: induced expression of Act A-X2 | Induction of Act A expression in purified human monocytes [6]: induces strong expression of Act A in purified human monocytes

B1: rhAct A: commercially available recombinant human Act A (protein, UniProt P08476 311-426, looked up)
Inhibin beta A chain: GLECDGKVNICCKKQFFVSFKDIGWNDWIIAPSGYHANYCEGECPSHIAGTSGSSLSFHSTVINHYRMRGHSPFANLKSCCVPTKLRPMSMLYYDDGQNIIKKDIQNMIVEECGCS
modifications: Inhibin beta A chain
Induction of TIEG expression (words) [7]: TIEG was rapidly upregulated | Induction of TIEG expression (words) ([7]; listed as rhActA): up-regulated

B2: activin A (protein, UniProt P08476 311-426, looked up)
Inhibin beta A chain: B1 Inhibin beta A chain
modifications: Inhibin beta A chain
pSMAD1/5/8 signaling through mutant ALK2 [8]: elicits pSMAD1/5/8 signaling
